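Interpolation was linear, between the two tested concentrations surrounding the appropriate level; five concentrations were tested over 48 hours in 96-well plates. GI50 is the concentration that inhibits growth by half. TGI: total growth inhibition.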 Where a SMILES comes first, the peptide text is derived from it. The star is where a group is joined. Palmitoyl = CCCCCCCCCCCCCCCC(=O)*
What was measured:
Test in all cases: NCI anticancer screen, dose series, 48 h
IGROV1 ovarian = system: IGROV1 ovarian
OVCAR-4 ovarian = system: OVCAR-4 ovarian
SF-539 CNS = system: SF-539 CNS
SK-MEL-2 melanoma = system: SK-MEL-2 melanoma
SK-MEL-28 melanoma = system: SK-MEL-28 melanoma
SNB-19 CNS = system: SNB-19 CNS
SW-620 colon = system: SW-620 colon
U251 CNS = system: U251 CNS
UACC-257 melanoma = system: UACC-257 melanoma
TK-10 renal = system: TK-10 renal

| SMILES | TGI (IGROV1 ovarian) [µM] | TGI (OVCAR-4 ovarian) [µM] | TGI (SF-539 CNS) [µM] | TGI (SK-MEL-2 melanoma) [µM] | TGI (SK-MEL-28 melanoma) [µM] | TGI (SNB-19 CNS) [µM] | TGI (SW-620 colon) [µM] | TGI (U251 CNS) [µM] | TGI (UACC-257 melanoma) [µM] | TGI (TK-10 renal) [µM] | GI50 (IGROV1 ovarian) [µM] | GI50 (OVCAR-4 ovarian) [µM] | GI50 (SF-539 CNS) [µM] | GI50 (SK-MEL-2 melanoma) [µM] | GI50 (SK-MEL-28 melanoma) [µM] | GI50 (SNB-19 CNS) [µM] | GI50 (SW-620 colon) [µM] | GI50 (UACC-257 melanoma) [µM] | GI50 (U251 CNS) [µM] |
| --- | --- | --- | --- | --- | --- | --- | --- | --- | --- | --- | --- | --- | --- | --- | --- | --- | --- | --- | --- |
| COc1ccc(CC(N)=O)cc1OC | > 1250 | > 1250 | > 1250 | > 1250 | > 1250 | > 1250 | > 1250 | > 1250 | > 580 |  |  |  |  |  |  |  |  |  |  |
| CC(C)C1=CC23CCC4C(C)(C(=O)O)CCCC4(C)C2CC1C1C(=O)N(CCCCCCN2C(=O)C4C5CC6C7(C)CCCC(C)(C(=O)O)C7CCC6(C=C5C(C)C)C4C2=O)C(=O)C13 (stereo not given) |  | 34.3 |  | 28.2 | 23.6 | 34.8 | 33.4 | 15.7 |  | 31 |  |  |  |  |  |  |  |  |  |
| O=C(O)c1cccc(S(=O)(=O)NN2C(=O)CSC2c2ccc(Cl)cc2Cl)c1 (stereo not given) | > 100 |  | 40 | > 100 | 75.8 | > 100 | > 100 | 44.7 | > 100 | > 100 |  |  |  |  |  |  |  |  |  |
| CN1CCN(Cc2cc3c(nn2)-c2ccccc2C3=O)CC1 | > 100 |  | > 100 | > 100 |  | > 100 | > 100 | > 100 | 37.1 | > 100 |  |  |  |  |  |  |  |  |  |
| COc1cccc2c1OC(c1cccc3ccccc13)C([N+](=O)[O-])=C2 (stereo not given) | 7.5 | 13 |  |  | 2.87 | 3.01 |  | 2.9 | 4.42 | 5.77 |  |  |  |  |  |  |  |  |  |
| CCOC(=O)CNC(=O)NC12CC3CC(CC(C3)C1)C2 | > 550 | > 550 | > 550 | 372 | > 539 | 548 | > 550 | > 550 | 477 |  |  |  |  |  |  |  |  |  |  |
| O=C(OCC(Cl)(Cl)Cl)N1CC[C@H](C2CCCCC2)C1 | 32.7 | 31.2 |  | 30.4 |  | 37.5 |  | 13.6 | 38.7 | 37.9 |  |  |  |  |  |  |  |  |  |
| c1ccc(C(C(=Nc2ccc(Cc3ccc(N=C(C(c4ccccc4)c4ccccc4)N4CC4)cc3)cc2)N2CC2)c2ccccc2)cc1 | 2.41 |  | 37.8 | 24.6 | 21.4 | 27.7 | 20.1 | 30.9 | 25.6 | 34.5 |  |  |  |  |  |  |  |  |  |
| CCCCCCCCCCCCCCCC(=O)N1CCCC1C(=O)NCC(=O)NC(Cc1ccccc1)C(=O)N1CCCC1C(=O)NC(CO)C(=O)NC(Cc1ccc(O)cc1)C(=O)NC(CCCCN)C(=O)NC(CC(C)C)C(=O)NC(CCCN=C(N)N)C(=O)N1CCCC1C(=O)NCC(N)=O (stereo not given) (Palmitoyl-PGFPSYKLRPG-NH2; configuration not given here) | 48.8 | 81.8 | 47.9 | > 100 | 50.3 | 55.5 | 73.9 |  | 31 |  | 18.6 | 30.1 | 20.5 | 46.2 | 13.9 | 25.7 | 25.5 | 14.6 |  |
| O=C(NCCCl)O/N=C/c1cccnc1 | > 100 | > 100 | > 100 | > 100 | > 100 | > 100 | > 100 | > 100 | > 100 |  |  |  |  |  |  |  |  |  |  |
| COc1cc2c(cc1OCCCCCN1CCN(c3ncnc4ccccc34)CC1)N=CC1CCCN1C2=O (stereo not given) |  | 2.28 | 0.0685 | 0.709 | 0.0569 | 3.53 |  | 3.98 | 0.568 |  |  | 0.0498 | 0.0268 | 0.0425 | 0.0264 | 0.0333 |  | 0.0738 | 0.0252 |
| O[C@H]1[C@H](O)[C@@H](O)CN2CC[C@H](O)[C@H]12 | > 100 | > 100 | > 100 | > 100 | > 100 | > 100 | > 100 | > 100 | > 100 |  |  |  |  |  |  |  |  |  |  |
| CN(C)Cc1cc(C(=O)/C=C/c2ccc([N+](=O)[O-])cc2)cc(CN(C)C)c1O | 35.6 |  | 40.5 | 30.1 |  | > 100 | 27.1 | 14.9 | 33.6 | 45.7 |  |  |  |  |  |  |  |  |  |
| Cn1c2ccccc2c2c(=S)c3ccccc3ccc21 | > 100 | > 100 |  |  | > 100 | > 100 | > 100 | > 100 | > 100 | > 100 |  |  |  |  |  |  |  |  |  |
| CCOC(=O)/C(C(C)=O)=C(\OC(C)=O)c1ccncc1C(=O)O | > 100 | > 100 | > 100 | > 100 | > 100 | > 100 | > 100 | > 100 | > 100 |  |  |  |  |  |  |  |  |  |  |
| COc1cc(C2c3cc4c(cc3[C@@H](Nc3ccccc3)C3COC(=O)[C@H]23)OCO4)cc(OC)c1O (stereo not given in full) | 17.5 | 34.6 | 1.8 | 6.97 | 23.1 | 11.3 | > 42.9 |  | 4.27 |  |  |  |  |  |  |  |  |  |  |
| Cc1cc(OP2(=O)NCc3ncccc3O2)ccc1Cl (stereo not given) | > 100 | > 100 | > 100 | > 100 | > 100 | > 100 | > 100 | > 100 | > 100 |  |  |  |  |  |  |  |  |  |  |
